Results taken from patent US10800792B2, “Inhibitors of Bruton's tyrosine kinase and method of their use” (JANSSEN PHARMACEUTICA NV, priority 2015, dated 2020).

Target: unphosphorylated-BTK kinase domain (UP-BTK), GST-tagged human BTK (389-659aa) (Homo sapiens (Human), UniProt Q06187)
Assay: BTK kinase Lanthascreen binding assay
Details: Lanthascreen tracer competition, 60 minutes incubation; pIC50 = negative log of the IC50 in molar
In short: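 A fluorescent tracer is bound to unphosphorylated BTK; test compound is added to compete it off; the Lanthascreen signal is read and IC50 is fitted, then reported as its negative log in molar.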

Sequence of unphosphorylated-BTK kinase domain (UP-BTK), GST-tagged human BTK (389-659aa) (Q06187 389-659): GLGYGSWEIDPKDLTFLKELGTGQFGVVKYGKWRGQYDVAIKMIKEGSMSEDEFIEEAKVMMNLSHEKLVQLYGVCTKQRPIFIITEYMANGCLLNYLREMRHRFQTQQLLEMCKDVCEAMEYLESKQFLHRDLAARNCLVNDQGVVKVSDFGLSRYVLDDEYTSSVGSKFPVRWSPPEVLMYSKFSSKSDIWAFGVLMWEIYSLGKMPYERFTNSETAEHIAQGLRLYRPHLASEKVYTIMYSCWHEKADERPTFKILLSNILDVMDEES

Point of comparison: `Cc1cc(Oc2ccccc2)ccc1N1C(=O)Nc2c(C(=O)N[C@@H]3CCCN(C(=O)C(C#N)=CC4(C)COC4)C3)sc3nccc1c23` (single isomer, unassigned) [Example 782, (R,EZ)—N-(1-(2-Cyano-3-(3-methyloxetan-3-yl)acryloyl)piperidin-3-yl)-5-(*S)-(2-methyl-4-phenoxyphenyl)-4-oxo-4,5-dihydro-3H-1-thia-3,5,8-triazaacenaphthylene-2-carboxamide], “BTK_I_binding pIC50” value 7.7. Against it:
- COc1ccccc1Oc1ccc(N2C(=O)Nc3c(C(=O)NC4CCCN(C(=O)/C(C#N)=C/C5CC5)C4)sc4nccc2c34)c(C)c1 (centres unmarked) [Example 856, (E)-N-(1-(2-Cyano-3-cyclopropylacryloyl)piperidin-3-yl)-5-(4-(2-methoxyphenoxy)-2-methylphenyl)-4-oxo-4,5-dihydro-3H-1-thia-3,5,8-triazaacenaphthylene-2-carboxamide] — lower, 7.5
- C=CC(=O)N1CC[C@@H](O)[C@H](NC(=O)c2sc3nccc4c3c2NC(=O)N4c2ccc(Oc3ccccc3)cc2)C1 [Example 655, N-((3R,4R)-1-Acryloyl-4-hydroxypiperidin-3-yl)-4-oxo-5-(4-phenoxyphenyl)-4,5-dihydro-3H-1-thia-3,5,8-triazaacenaphthylene-2-carboxamide] — higher, 8.0
- CC(=O)N1CC[C@@H](NC(=O)c2sc3nccc4c3c2NC(=O)N4c2ccc(Oc3ccccc3)cc2)C1 [Example 888, (R)—N-(1-Acetylpyrrolidin-3-yl)-4-oxo-5-(4-phenoxyphenyl)-4,5-dihydro-3H-1-thia-3,5,8-triazaacenaphthylene-2-carboxamide] — lower, 7.0
- C=CC(=O)N1CCC[C@@H](NC(=O)c2sc3nccc4c3c2NC(=O)N4c2cccc(OC3CCC3)c2)C1 [Example 598] — lower, 6.5

Same assay, conditions: Lanthascreen tracer competition, 60 minutes incubation; pIC50 = negative log of the IC50 in molar; read-out: BTK_I_binding pIC50 (converted)

With `Cc1cc(Oc2ccccc2)ccc1N1C(=O)Nc2c(NC(=O)C3CCCN(C)C3)sc3nccc1c23` (centres unmarked) [Example 823, 1-Methyl-N-(5-(2-methyl-4-phenoxyphenyl)-4-oxo-4,5-dihydro-3H-1-thia-3,5,8-triazaacenaphthylen-2-yl)piperidine-3-carboxamide] the IC50 was 3160 nM.

Same assay, conditions: pIC50 = negative log of the IC50 in molar; 60 minutes incubation, 50 nM Tracer 236

Point of comparison: `C=CC(=O)N1CCC[C@@H](NC(=O)c2sc3nccc4c3c2NC(=O)N4c2c(F)cc(Oc3ccccc3)cc2F)C1` [Example 69, (R)—N-(1-Acryloylpiperidin-3-yl)-5-(2,6-difluoro-4-phenoxyphenyl)-4-oxo-4,5-dihydro-3H-1-thia-3,5,8-triazaacenaphthylene-2-carboxamide], “BTK_I_binding pIC50” value 7.7. Against it:
- CC#CC(=O)N1CCC[C@@H](NC(=O)c2sc3nccc4c3c2NC(=O)N4c2ccc(Oc3ccccc3)cc2C)C1 [Example 42, (R)—N-(1-(But-2-ynoyl)piperidin-3-yl)-5-(2-methyl-4-phenoxyphenyl)-4-oxo-4,5-dihydro-3H-1-thia-3,5,8-triazaacenaphthylene-2-carboxamide] — lower, 7.0
- Cc1cc(Oc2ccccc2)ccc1N1C(=O)Nc2c(C(=O)N[C@@H]3CCN(C(C)C)C3)sc3nccc1c23 [Example 118, (R)—N-(1-Isopropylpyrrolidin-3-yl)-5-(2-methyl-4-phenoxyphenyl)-4-oxo-4,5-dihydro-3H-1-thia-3,5,8-triazaacenaphthylene-2-carboxamide] — lower, 6.9
- Cc1cc(Oc2ccccc2)ccc1N1C(=O)Nc2c(C(=O)NC3CCNCC3C)sc3nccc1c23 (centres unmarked) [Example 172, 5-(2-Methyl-4-phenoxyphenyl)-N-(3-methylpiperidin-4-yl)-4-oxo-4,5-dihydro-3H-1-thia-3,5,8-triazaacenaphthylene-2-carboxamide] — lower, 6.7
- Cc1cc(Oc2ccccc2)ccc1N1C(=O)Nc2c(C(=O)N[C@H]3CN(C)C[C@@H]3O)sc3nccc1c23 [Example 243, N-((3S,4S)-4-Hydroxy-1-methylpyrrolidin-3-yl)-5-(2-methyl-4-phenoxyphenyl)-4-oxo-4,5-dihydro-3H-1-thia-3,5,8-triazaacenaphthylene-2-carboxamide] — lower, 6.6
- Cc1cc(Oc2ccccc2)ccc1N1C(=O)Nc2c(C(=O)N[C@@H]3CCCN(C(=O)/C(C#N)=C/C(C)(C)N4CCOCC4)C3)sc3nccc1c23 (single isomer, unassigned) [Example 43, (R,E)-N-(1-(2-Cyano-4-methyl-4-morpholinopent-2-enoyl)piperidin-3-yl)-5-(*S)-(2-methyl-4-phenoxyphenyl)-4-oxo-4,5-dihydro-3H-1-thia-3,5,8-triazaacenaphthylene-2-carboxamide] — lower, 7.2
- O=C(N[C@@H]1CCCNC1)c1sc2nccc3c2c1NC(=O)N3c1ccc(Cl)c(C(F)(F)F)c1 [Example 280, (R)-5-(4-Chloro-3-(trifluoromethyl)phenyl)-4-oxo-N-(piperidin-3-yl)-4,5-dihydro-3H-1-thia-3,5,8-triazaacenaphthylene-2-carboxamide] — lower, 5.8
- Cc1cc(Oc2ccccc2)ccc1N1C(=O)Nc2c(C(=O)N[C@@H]3CCNC3)sc3nccc1c23 [Example 159, (R)-5-(2-methyl-4-phenoxyphenyl)-4-oxo-N-(pyrrolidin-3-yl)-4,5-dihydro-3H-1-thia-3,5,8-triazaacenaphthylene-2-carboxamide] — lower, 7.1
- Cc1cc(Oc2ccccc2)ccc1N1C(=O)Nc2c(C(=O)NC3CNC3)sc3nccc1c23 [Example 252, N-(azetidin-3-yl)-5-(2-methyl-4-phenoxyphenyl)-4-oxo-4,5-dihydro-3H-1-thia-3,5,8-triazaacenaphthylene-2-carboxamide] — lower, 6.4
- Cc1cc(Oc2ccccc2)ccc1N1C(=O)Nc2c(C(=O)NC3CCOCC3)sc3nccc1c23 [Example 123, 5-(2-Methyl-4-phenoxyphenyl)-4-oxo-N-(tetrahydro-2H-pyran-4-yl)-4,5-dihydro-3H-1-thia-3,5,8-triazaacenaphthylene-2-carboxamide] — lower, 6.9

Same assay, conditions: pIC50 = negative log of the IC50 in molar; 60 minutes incubation, 50 nM Tracer 236; read-out: BTK_I_binding pIC50 (converted)

Point of comparison: `C=CC(=O)N1C[C@@H](O)C[C@@H](NC(=O)c2sc3nccc4c3c2NC(=O)N4c2ccc(Oc3ccccc3)cc2C)C1` [Example 13, N-((3R,5S)-1-Acryloyl-5-hydroxypiperidin-3-yl)-5-(2-methyl-4-phenoxyphenyl)-4-oxo-4,5-dihydro-3H-1-thia-3,5,8-triazaacenaphthylene-2-carboxamide], IC50 15.8 nM. Against it:
- C=CC(=O)N1CC[C@@H](NC(=O)c2sc3nccc4c3c2NC(=O)N4c2ccc(Oc3ccccc3)c(F)c2C)C1 [Example 7, (R)—N-(1-Acryloylpyrrolidin-3-yl)-5-(3-fluoro-2-methyl-4-phenoxyphenyl)-4-oxo-4,5-dihydro-3H-1-thia-3,5,8-triazaacenaphthylene-2-carboxamide] — within 1.5-fold, 12.6 nM

Same assay, conditions: unphosphorylated-BTK kinase domain, 50 nM Tracer 236, 60 minutes; pIC50 = negative log of the IC50 in molar

Point of comparison: `Cc1cc(OC2CCCC2)ccc1N1C(=O)Nc2c(C(=O)N[C@@H]3CCCN(C)C3)sc3nccc1c23` [Example 297, (R)-5-(4-(Cyclopentyloxy)-2-methylphenyl)-N-(1-methylpiperidin-3-yl)-4-oxo-4,5-dihydro-3H-1-thia-3,5,8-triazaacenaphthylene-2-carboxamide], “BTK_I_binding pIC50” value 6.1. Against it:
- C=CC(=O)N1CCC[C@@H](NC(=O)c2sc3nccc4c3c2NC(=O)N4c2ccc(Cl)c(Cl)c2)C1 [Example 360, (R)—N-(1-Acryloylpiperidin-3-yl)-5-(3,4-dichlorophenyl)-4-oxo-4,5-dihydro-3H-1-thia-3,5,8-triazaacenaphthylene-2-carboxamide] — higher, 6.7
- COCC(=O)N1CCC[C@@H](NC(=O)c2sc3nccc4c3c2NC(=O)N4c2ccc(Oc3ccccc3)cc2)C1 [Example 576, (R)—N-(1-(2-Methoxyacetyl)piperidin-3-yl)-4-oxo-5-(4-phenoxyphenyl)-4,5-dihydro-3H-1-thia-3,5,8-triazaacenaphthylene-2-carboxamide] — higher, 7.3
- O=C(N[C@@H]1CCCNC1)c1sc2nccc3c2c1NC(=O)N3c1ccc(C(F)(F)F)cc1 [Example 341, (R)-4-Oxo-N-(piperidin-3-yl)-5-(4-(trifluoromethyl)phenyl)-4,5-dihydro-3H-1-thia-3,5,8-triazaacenaphthylene-2-carboxamide] — lower, 5.2
- Cc1cc(Oc2ccccc2)ccc1N1C(=O)Nc2c(C(=O)N[C@H]3CCOC3)sc3nccc1c23 (single isomer, unassigned) [Example 323, (S)-5-(*R)-(2-Methyl-4-phenoxyphenyl)-4-oxo-N-(tetrahydrofuran-3-yl)-4,5-dihydro-3H-1-thia-3,5,8-triazaacenaphthylene-2-carboxamide] — lower, 5.7
- C=CC(=O)N1CCC[C@@H](NC(=O)c2sc3nccc4c3c2NC(=O)N4c2ccnc(-c3ccccc3)c2)C1 [Example 512, (R)—N-(1-Acryloylpiperidin-3-yl)-4-oxo-5-(2-phenylpyridin-4-yl)-4,5-dihydro-3H-1-thia-3,5,8-triazaacenaphthylene-2-carboxamide] — higher, 7.8
- C=CC(=O)N1CC[C@@H](NC(=O)c2sc3nccc4c3c2NC(=O)N4c2ccc(Oc3ccccc3)cc2C(F)(F)F)C1 [Example 324, (R)—N-(1-Acryloylpyrrolidin-3-yl)-4-oxo-5-(4-phenoxy-2-(trifluoromethyl)phenyl)-4,5-dihydro-3H-1-thia-3,5,8-triazaacenaphthylene-2-carboxamide] — lower, 5.7
- C=CC(=O)N1C[C@H](NC(=O)c2sc3nccc4c3c2NC(=O)N4c2ccc(Oc3ccccc3)cc2)[C@@H](F)C1 [Example 543, N-((3S,4S)-1-Acryloyl-4-fluoropyrrolidin-3-yl)-4-oxo-5-(4-phenoxyphenyl)-4,5-dihydro-3H-1-thia-3,5,8-triazaacenaphthylene-2-carboxamide] — higher, 7.5
